The values below come from US20090312349A1, “ANTI-INFLAMMATORY MEDICAMENTS” (priority 2004, published 2009).

Test [1] deals with p38 MAP kinase (Homo sapiens, UniProt Q16539). The test can be described thus: P38 MAP kinase binding assay (fluorescence competition with SKF 86002). Particulars: time-dependent if the IC50 values decrease with the reaction time (more than two-fold in four hours). Here is the method: The reaction was initiated by addition of the enzyme. […] By comparison of rfu (relative fluorescence unit) values with that of a control (in the absence of an inhibitor), the percentage of inhibition at each concentration of the inhibitor was calculated. IC50 value for the inhibitor was calculated from the % inhibition values obtained at a range of concentrations of the inhibitor using Prism. When time-dependent inhibition was assessed, the plate was read at multiple reaction times such as 0.5, 1, 2, 3, 4 and 6 hours. The IC50 values were calculated at the each time point. An inhibition was assigned as time-dependent if the IC50 values decrease with the reaction time (more than two-fold in four hours).
Chain of p38 MAP kinase (Q16539 whole entry): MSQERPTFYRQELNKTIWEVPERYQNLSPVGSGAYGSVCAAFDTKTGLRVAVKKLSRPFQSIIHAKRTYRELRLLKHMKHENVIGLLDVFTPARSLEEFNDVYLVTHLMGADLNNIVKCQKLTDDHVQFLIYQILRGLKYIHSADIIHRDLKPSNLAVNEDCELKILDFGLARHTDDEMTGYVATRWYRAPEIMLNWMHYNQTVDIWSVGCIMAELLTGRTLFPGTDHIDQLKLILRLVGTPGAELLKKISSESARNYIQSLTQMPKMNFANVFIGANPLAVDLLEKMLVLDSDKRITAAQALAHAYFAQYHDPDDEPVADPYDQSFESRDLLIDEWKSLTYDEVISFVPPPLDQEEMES

Test [2] deals with TNF-alpha release from human peripheral blood mononuclear leukocytes. Description: Human peripheral blood mononuclear leukocyte cell assay (LPS-induced TNF-alpha release, ELISA). It is filed as cell-based. Particulars: 25 ng/mL LPS, 16 hours, read-out: IC50, uM (inhibition of TNF-alpha release). As for the experimental part: The quantity of LPS-induced tumor necrosis factor-alpha (TNF-alpha) cytokine release is measured by a commercially available Enzyme-Linked Immunosorbent Assay (ELISA) kit. Test compounds are evaluated for their ability to inhibit TNF-alpha release.

Test [3] deals with B-Raf(V599E) kinase (Homo sapiens, UniProt P15056, V600E). Description: biochemical. As for the experimental part: The test compounds were incubated with the reaction mixture at 30° C. for 2 h. […] The reaction rate was calculated using the 1.5 h to 2.5 h time frame. […] IC50 values were calculated from a series of percent inhibition values determined at a range of inhibitor concentrations using software routines as implemented in the GraphPad Prism software package.
Chain of B-Raf(V599E) kinase (P15056 433-726 V600E): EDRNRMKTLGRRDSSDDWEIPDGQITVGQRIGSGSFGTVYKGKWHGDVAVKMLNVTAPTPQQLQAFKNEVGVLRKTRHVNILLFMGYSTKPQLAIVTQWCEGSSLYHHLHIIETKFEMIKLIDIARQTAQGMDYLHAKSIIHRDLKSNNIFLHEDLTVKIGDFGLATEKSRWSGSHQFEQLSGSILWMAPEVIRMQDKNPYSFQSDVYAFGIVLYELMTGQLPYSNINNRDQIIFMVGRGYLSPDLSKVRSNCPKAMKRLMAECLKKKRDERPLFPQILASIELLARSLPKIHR
Same as assay B1 except that (1) construct 2 was employed at a nominal concentration of 2 nM (2) the reaction was pre-incubated at 30° C. for 1 h prior to initiation with ATP (3) a reading time frame of 0.5 h to 1.5 h.

For test [4], the target named is phosphorylated p-38-alpha kinase (Homo sapiens, UniProt Q16539). The test can be described thus: P-38 alpha kinase assay P1. It is filed as biochemical. Particulars: Method P1; 2 h pre-incubation before ATP.
Chain of phosphorylated p-38-alpha kinase (Q16539 1-360 isoform Q16539-2): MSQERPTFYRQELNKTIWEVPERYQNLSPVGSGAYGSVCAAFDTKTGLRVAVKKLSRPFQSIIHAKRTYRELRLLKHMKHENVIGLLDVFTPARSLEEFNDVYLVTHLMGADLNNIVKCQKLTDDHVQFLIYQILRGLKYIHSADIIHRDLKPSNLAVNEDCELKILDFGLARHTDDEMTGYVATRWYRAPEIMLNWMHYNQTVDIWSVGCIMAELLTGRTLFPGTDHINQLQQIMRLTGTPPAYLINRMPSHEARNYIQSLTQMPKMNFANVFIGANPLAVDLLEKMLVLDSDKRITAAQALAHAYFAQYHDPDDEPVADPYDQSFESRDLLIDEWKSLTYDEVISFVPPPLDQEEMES
The target in test [5] is T1, phospho p-38 alpha kinase (Homo sapiens, UniProt Q16539).
T1 construct: purchased Panvera
T1 sequence (Q16539 whole entry): as the sequence (Q16539 whole entry) above
The test can be described thus: P-38 alpha kinase assay (spectrophotometric, pyruvate kinase/lactate dehydrogenase coupled). It is filed as biochemical. Conditions: Table 5; assay not named; read-out: uM.

Test [6] has as its target T2, KDR kinase (Homo sapiens, UniProt P35968, DEL940-989/E990V). Description: KDR kinase assay K1. It is filed as biochemical. Conditions: read-out: Results, % @ concentration μM, Method K1; @ 10 μM. As for the experimental part:
(§1) IC50 values were calculated from a series of percent inhibition values determined at a range of inhibitor concentrations using software routines as implemented in the GraphPad Prism software package.

The target of test [7] is T3, Abl kinase (Homo sapiens, UniProt P00519).
T3 sequence (P00519 229-512): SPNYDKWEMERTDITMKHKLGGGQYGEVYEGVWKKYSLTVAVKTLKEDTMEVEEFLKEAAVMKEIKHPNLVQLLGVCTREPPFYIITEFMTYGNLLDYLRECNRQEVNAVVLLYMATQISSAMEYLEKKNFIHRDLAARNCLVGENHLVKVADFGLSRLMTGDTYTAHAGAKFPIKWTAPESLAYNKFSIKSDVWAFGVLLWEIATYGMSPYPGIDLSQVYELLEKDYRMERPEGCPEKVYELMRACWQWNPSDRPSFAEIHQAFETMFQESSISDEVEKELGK
The test can be described thus: Abl kinase assay A1. It is filed as biochemical. Particulars: read-out: Results, % @ concentration μM, Method A1; @ 1 μM. Here is the method: as §1

In test [8] the target is T2, KDR kinase. Description: KDR kinase assay K2. Particulars: read-out: Results, % @ concentration μM.
Test [9] deals with T3, Abl kinase. Description: Abl kinase assay A2. It is filed as biochemical. Conditions: Method A2; 2 h pre-incubation, 0.5 mM ATP. As for the experimental part:
as §1

[10] abbreviates: read-out: Results, % @ concentration μM.

T2 sequence (P35968 with tags, fused parts or gaps DEL940-989/E990V): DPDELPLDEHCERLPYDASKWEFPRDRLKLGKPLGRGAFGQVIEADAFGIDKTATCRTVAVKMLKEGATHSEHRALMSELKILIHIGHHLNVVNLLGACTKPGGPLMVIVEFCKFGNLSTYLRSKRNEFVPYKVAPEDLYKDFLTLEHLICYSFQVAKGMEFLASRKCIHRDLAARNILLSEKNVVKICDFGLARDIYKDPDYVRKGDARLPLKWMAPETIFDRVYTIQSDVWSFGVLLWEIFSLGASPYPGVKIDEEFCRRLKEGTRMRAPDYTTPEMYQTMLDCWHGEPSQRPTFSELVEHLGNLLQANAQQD

For the compound `CC1(C(=O)O)CC2(C)CC(C)(C1)C(=O)N(Cc1cccc(-n3nc(C(C)(C)C)cc3NC(=O)Nc3cccc4ccccc34)c1)C2=O` (stereo not shown) [Example 11], in test [1], the Time-dependent result is “No”.
Still for that read-out and setting: for `CC1(C(=O)O)CC2(C)CC(C)(C1)C(=O)N(Cc1cccc(-n3nc(C(C)(C)C)cc3NC(=O)Nc3ccc(Cl)cc3)c1)C2=O` (stereo not shown) [Example 12] the value was “No”.
Consider `CC(C)(C)c1cc(NC(=O)Nc2cccc3ccccc23)n(-c2cccc(CC(=O)N3CCOCC3)c2)n1` [Example 21, 1-{3-t-butyl-1-[3-(2-morpholino-2-oxoethyl)phenyl]-1H-pyrazol-5-yl}-3-(naphthalene-1-yl)urea], for which the Time-dependent result in [1] was “Yes”.
The same measure, in the same setting: for `CC(C)(C)c1cc(NC(=O)Nc2cccc3ccccc23)n(-c2ccc(CN)cc2)n1` [Example 45, 1-{3-t-butyl-1-[4-(aminomethyl)phenyl]-1H-pyrazol-5-yl}-3-(naphthalen-1-yl)urea] the value was “No”.
Take `CCOC(=O)Cc1cccc(-n2nc(C(C)(C)C)cc2NC(=O)Nc2ccc3c(c2)OCO3)c1` [Example 296, ethyl 2-(3-{5-[3-(benzo[d][1,3]dioxol-5-yl)ureido]-3-t-butyl-1H-pyrazol-1-yl}phenyl)-acetate]: the IC50 in test [2] came out at 3.49 µM.
On to `CN(C)CCc1cccc(-n2nc(C(C)(C)C)cc2NC(=O)Nc2ccc3c(c2)OCO3)c1` [Example 300, 1-(benzo[d][1,3]dioxol-5-yl)-3-{3-t-butyl 1-(3-[2-(dimethylamino)ethyl]phenyl}-1H-pyrazol-5-yl)urea], for which the IC50 in test [2] stood at 4.78 µM.
On to `O=C(Cc1cccc(-n2nc(-c3ccccc3F)cc2NC(=O)Nc2cccc(Cl)c2Cl)c1)NCC(O)CO` (stereo not shown) [Example 459, 1-(2,3-dichlorophenyl)-3-(1-(3-(2-(2,3-dihydroxypropylamino)-2-oxoethyl)phenyl)-3-(2-fluorophenyl)-1H-pyrazol-5-yl)urea], for which the inhibition at 10 µM in test [3] (setting [10]) was determined as 5%; in [6], 33%. Also, the values for the IC50 in test [4] and in [5] were 0.005 µM and 0.02 µM, respectively.
`O=C(Cc1ccc(-n2nc(-c3ccccc3F)cc2NC(=O)Nc2cccc(Cl)c2Cl)cc1)NCC(O)CO` (stereo not shown) [Example 471, 1-(2,3-dichlorophenyl)-3-(1-(4-(2-(2,3-dihydroxypropylamino)-2-oxoethyl)phenyl)-3-(2-fluorophenyl)-1H-pyrazol-5-yl)urea]: the inhibition at 10 µM in test [3] (setting [10]) amounted to 39%. In test [4], this compound registered an IC50 of 0.016 µM. In addition, the inhibition at 1 µM in test [7] turned out to be 14%.
As to `O=C(Cc1cccc(-n2nc(C3CCCC3)cc2NC(=O)Nc2cccc(Cl)c2Cl)c1)NCCO` [Example 488, 1-(3-cyclopentyl-1-(3-(2-(2-hydroxyethylamino)-2-oxoethyl)phenyl)-1H-pyrazol-5-yl)-3-(2,3-dichlorophenyl)urea], the inhibition at 1 µM in test [3] (setting [10]) came out at 21%; in test [8] it was 41%. Besides, the IC50 stood at 0.007 µM in test [4] and 0.54 µM in [5].
On to `Cc1ccc(NC(=O)Nc2cc(C(C)(C)C)nn2-c2cccc(CC(=O)NCC(O)CO)c2)cc1Nc1nccc(-c2cccnc2)n1` (stereo not shown) [Example 517, 1-(3-tert-butyl-1-(3-(2-(2,3-dihydroxypropylamino)-2-oxoethyl)phenyl)-1H-pyrazol-5-yl)-3-(4-methyl-3-(4-(pyridin-3-yl)pyrimidin-2-ylamino)phenyl)urea], for which the IC50 is 0.0022 µM in [9] and 0.075 µM in [3] (Method B2, construct 2).
